Values of other authors in US20190275270A1, “SYSTEM AND METHOD FOR ARRESTING DEBILITATING MIGRAINE EVENTS” (priority 2018, published 2019).

Assays:
CB2 [1] = biological target: T1, CB2 (Homo sapiens, UniProt P34972)
CB1 [2] = biological target: T2, CB1 (Homo sapiens, UniProt P21554)
CB1 [3] = biological target: T2, CB1; remark: listed apart in the source
CB2 [4] = biological target: T1, CB2; remark: listed apart in the source
[5] = system: nitric oxide (NO) production; settings: read-out: inhibits NO production, IC50
migraine incidences = settings: used in a preventative context

T2 sequence (P21554 whole entry, species assumed): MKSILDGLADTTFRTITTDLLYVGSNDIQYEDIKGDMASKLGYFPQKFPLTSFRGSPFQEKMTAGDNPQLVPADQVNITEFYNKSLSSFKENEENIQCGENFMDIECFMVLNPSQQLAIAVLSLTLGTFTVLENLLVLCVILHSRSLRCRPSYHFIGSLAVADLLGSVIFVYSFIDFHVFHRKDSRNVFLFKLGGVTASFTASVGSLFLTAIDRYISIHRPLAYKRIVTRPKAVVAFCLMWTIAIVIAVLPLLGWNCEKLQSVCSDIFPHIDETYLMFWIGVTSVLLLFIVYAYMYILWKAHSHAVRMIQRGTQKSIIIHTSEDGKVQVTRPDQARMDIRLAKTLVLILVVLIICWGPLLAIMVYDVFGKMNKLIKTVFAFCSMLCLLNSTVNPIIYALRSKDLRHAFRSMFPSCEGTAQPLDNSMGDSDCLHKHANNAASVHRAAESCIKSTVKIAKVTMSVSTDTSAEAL
T1 sequence (P34972 whole entry, species assumed): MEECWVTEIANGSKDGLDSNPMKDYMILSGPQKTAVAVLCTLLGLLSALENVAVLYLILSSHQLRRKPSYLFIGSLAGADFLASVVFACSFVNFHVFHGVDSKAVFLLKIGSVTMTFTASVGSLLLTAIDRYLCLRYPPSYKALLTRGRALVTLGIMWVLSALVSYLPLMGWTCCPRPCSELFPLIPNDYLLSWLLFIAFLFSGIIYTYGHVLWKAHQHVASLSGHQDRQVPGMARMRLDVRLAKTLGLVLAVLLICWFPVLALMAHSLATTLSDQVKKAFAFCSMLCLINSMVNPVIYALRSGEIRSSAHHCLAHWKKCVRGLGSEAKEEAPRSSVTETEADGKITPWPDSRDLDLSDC

caryophyllene
binding to CB2 (CB2 [1]): binds | binding to CB1 (CB1 [2]): binds

C=CCc1ccc(O)c(-c2ccc(O)c(CC=C)c2)c1 [honokiol]
activity at CB1 (CB1 [3]): full agonistic activity | activity at CB2 (CB2 [4]): antagonistic properties

C=CCc1ccc(O)c(-c2cc(CC=C)ccc2O)c1 [Magnolol]
IC50 [5]: ~6.2 µM | activity at CB2 (CB2 [4]): partial agonist

C=C(C)[C@@H]1CCC(C)=C[C@H]1c1c(O)cc(CCCCC)cc1O [CBD, cannabidiol]
cut in migraine incidences (migraine incidences): more than 50%

CCCCCCC[C@@H](C/C=C/CCC(=O)N(C)C/C(=C/Cl)C/C(=C\C(=O)N1CC(O)CC1=O)OC)OC (stereo partly drawn) [Malyngamide B]
binding to CB2 (CB2 [1]): moderate potencies | binding to CB1 (CB1 [2]): moderate potencies
